Reference: ChEMBL document CHEMBL5380844, “Discovery of a Novel, Potent, Orally Active, and Safe Inhibitor Targeting Human Mitochondrial RNA Polymerase” (J Med Chem, 2023)
pIC50: −log10 of the molar value.

How the values were obtained:
[1] = Inhibition of ND1 transcript level in human A2780 cells at 500 nM measured after 12 hrs by RT-qPCR analysis relative to control; type: functional
A2780 = assay: Antiproliferative activity against human A2780 cells incubated for 168 hrs by SRB method; type: functional, cell-based; conditions: A2780, 168 h
[2] = Apparent permeability across apical to basolateral side in human Caco-2 cells at 3 uM incubated for 2 hrs by LC-MS/MS analysis; type: ADME, cell-based

SMILES	pIC50 (A2780)	Papp A→B at 2 h, 3 µM [2] [×10⁻⁶ cm/s]	inhibition at 0.5 µM [1] [%]
C[C@@H](Oc1ccc2c(-c3ccsc3)cc(=O)oc2c1)C(=O)N1CC2CCC(C1)N2	6.89	–	24
C[C@@H](Oc1ccc2c(-c3ccc(F)cc3Cl)cc(=O)oc2c1)C(=O)N1CCS(=O)(=O)CC1	6.54	–	35
Cc1cc(Cl)ccc1-c1cc(=O)oc2cc(O[C@H](C)C(=O)N3CC4CCC(C3)N4)ccc12	7.24	–	12
O=C(O)[C@H]1CCCN(C(=O)COc2ccc3c(-c4ccc(F)cc4Cl)cc(=O)oc3c2)C1	6.43	–	39
C[C@@H](Oc1ccc2c(-c3ccc(F)cc3Cl)cc(=O)oc2c1)C(=O)N1C2CCC1CNC2	7.19	–	15
C[C@@H](Oc1ccc2c(-c3ccc(F)cc3Cl)cc(=O)oc2c1)C(=O)N1CC2CCC(C1)N2	7.37	–	8
C[C@@H](Oc1ccc2c(-c3cccc(Cl)c3)cc(=O)oc2c1)C(=O)N1CC2CCC(C1)N2	6.61	–	32
Cc1ccc(-c2cc(=O)oc3cc(O[C@H](C)C(=O)N4CC5CCC(C4)N5)ccc23)cc1	7.21	–	11
C[C@@H](Oc1ccc2c(-c3ccc(F)cc3)cc(=O)oc2c1)C(=O)N1CC2CCC(C1)N2	6.34	–	44
C[C@@H](Oc1ccc2c(ccn2-c2ccc(F)cc2Cl)c1)C(=O)N1CCC[C@H](C(=O)O)C1	< 5.00	–	97
Cc1ccc(-c2cc(=O)oc3cc(O[C@H](C)C(=O)N4CC5CCC(C4)N5)ccc23)c(Cl)c1	6.88	–	28
C[C@@H](Oc1ccc2c(-c3ccccc3Cl)cc(=O)oc2c1)C(=O)N1CC2CCC(C1)N2	7.28	–	15
Nc1cc(N2CCCCC2)nc(N)[n+]1[O-] [MINOXIDIL]	–	6.79	–
C[C@@H](Oc1ccc2c(-c3cccc(F)c3)cc(=O)oc2c1)C(=O)N1CC2CCC(C1)N2	6.06	–	75
C[C@@H](Oc1ccc2c(-c3ccc(Cl)cc3)cc(=O)oc2c1)C(=O)N1CC2CCC(C1)N2	–	–	24
C[C@@H](Oc1ccc2c(-c3ccc(F)cc3Cl)cc(=O)oc2c1)C(=O)N1CC2(COC2)C1	6.12	–	68
C[C@@H](Oc1ccc2c(-c3ccc(F)cc3Cl)cc(=O)oc2c1)C(=O)N1CC2CC(C1)N2	6.95	–	24
C[C@@H](Oc1ccc2c(C3CCCCC3)cc(=O)oc2c1)C(=O)N1CC2CCC(C1)N2	6.60	–	31
Cc1ccccc1-c1cc(=O)oc2cc(O[C@H](C)C(=O)N3CC4CCC(C3)N4)ccc12	7.51	–	8
C[C@@H](Oc1ccc2c(-c3ccncc3)cc(=O)oc2c1)C(=O)N1CC2CCC(C1)N2	6.08	–	78
C[C@H](Oc1ccc2c(-c3ccc(F)cc3Cl)cc(=O)oc2c1)C(=O)N1CCC[C@H](C(=O)O)C1	6.54	–	34
C[C@@H](Oc1ccc2c(-c3ccc(F)cc3Cl)ncnc2c1)C(=O)N1CCC[C@H](C(=O)O)C1	< 5.00	–	93

SMILES	pIC50 (A2780)	Papp A→B at 2 h, 3 µM [2] [×10⁻⁶ cm/s]	inhibition at 0.5 µM [1] [%]
C[C@@H](Oc1ccc2c(-c3ccc(F)cc3Cl)cccc2c1)C(=O)N1CCC[C@H](C(=O)O)C1	6.19	–	45
Cc1cccc(-c2cc(=O)oc3cc(O[C@H](C)C(=O)N4CC5CCC(C4)N5)ccc23)c1	6.90	–	25
C[C@@H](Oc1ccc(C(=O)c2ccc(F)cc2Cl)cc1)C(=O)N1CCC[C@H](C(=O)O)C1	< 5.00	–	99
C[C@@H](Oc1cccc(-c2ccc(F)cc2Cl)c1)C(=O)N1CCC[C@H](C(=O)O)C1	< 5.00	–	95
C[C@@H](Oc1ccc2c(-c3ccccc3F)cc(=O)oc2c1)C(=O)N1CC2CCC(C1)N2	6.67	–	33
C[C@@H](Oc1ccc2c(-c3cccc4ccccc34)cc(=O)oc2c1)C(=O)N1CC2CCC(C1)N2	6.25	–	67
C[C@@H](Oc1ccc2c(-c3ccc(F)cc3Cl)coc2c1)C(=O)N1CCC[C@H](C(=O)O)C1	< 5.00	–	105
Cc1cc(C)c(-c2cc(=O)oc3cc(O[C@H](C)C(=O)N4CC5CCC(C4)N5)ccc23)c(C)c1	7.13	–	16
CC(=O)N1CCN(C(=O)[C@@H](C)Oc2ccc3c(-c4ccc(F)cc4Cl)cc(=O)oc3c2)CC1	6.65	–	27
O=C(O)[C@H]1CCCN(C(=O)C(F)(F)Oc2ccc3c(-c4ccc(F)cc4Cl)cc(=O)oc3c2)C1	6.49	–	37
Cc1cc(F)ccc1-c1cc(=O)oc2cc(O[C@H](C)C(=O)N3CC4CCC(C3)N4)ccc12	7.38	–	12
O=C(O)[C@H]1CCCN(C(=O)C2CC(Oc3ccc4c(-c5ccc(F)cc5Cl)cc(=O)oc4c3)C2)C1 (stereo not given in full)	< 5.00	–	101
CC(C)c1cc(=O)oc2cc(O[C@H](C)C(=O)N3CC4CCC(C3)N4)ccc12	5.65	–	93
C[C@@H](Oc1ccc2c(-c3ccc(F)cc3Cl)cc(=O)[nH]c2c1)C(=O)N1CCC[C@H](C(=O)O)C1	< 5.00	–	88
C[C@@H](Oc1ccc2c(-c3ccc(F)cc3Cl)csc2c1)C(=O)N1CCC[C@H](C(=O)O)C1	< 5.00	–	89
C[C@@H](Oc1ccc2c(-c3cc4ccccc4s3)cc(=O)oc2c1)C(=O)N1CC2CCC(C1)N2	5.79	–	85
C[C@@H](Oc1ccc2c(-c3ccc(Cl)cc3Cl)cc(=O)oc2c1)C(=O)N1CC2CCC(C1)N2	7.25	–	24
C[C@@H](Oc1ccc2c(-c3ccccc3)cc(=O)oc2c1)C(=O)N1CC2CCC(C1)N2	6.37	–	43
O=C(O)[C@H]1CCCN(C(=O)C2(Oc3ccc4c(-c5ccc(F)cc5Cl)cc(=O)oc4c3)CCC2)C1	6.16	–	42
CC(C)(Oc1ccc2c(-c3ccc(F)cc3Cl)cc(=O)oc2c1)C(=O)N1CCC[C@H](C(=O)O)C1	6.25	–	43
C[C@@H](Oc1ccc2c(C34C[C@H]5C[C@H](C3)C[C@@H](C4)C5)cc(=O)oc2c1)C(=O)N1CC2CCC(C1)N2	7.04	–	22

Now from value to compound, other results behind:

pIC50 (A2780)	Papp A→B at 2 h, 3 µM [2] [×10⁻⁶ cm/s]	SMILES	inhibition at 0.5 µM [1] [%]
6.75	–	C[C@@H](Oc1ccc2c(-c3ccc(F)cc3Cl)cc(=O)oc2c1)C(=O)NCCCO	22
6.68	–	C[C@@H](CO)NC(=O)[C@@H](C)Oc1ccc2c(-c3ccc(F)cc3Cl)cc(=O)oc2c1	32
6.76	–	C[C@@H](Oc1ccc2c(-c3ccc(F)cc3Cl)cc(=O)oc2c1)C(=O)N1CCN(C)CC1	28
5.60	–	C[C@@H](Oc1ccc2c(-c3ccc(F)cc3Cl)cc(=O)oc2c1)C(=O)NCCN1CCS(=O)(=O)CC1	86
6.55	–	C[C@@H](Oc1ccc2c(-c3ccc(F)cc3Cl)cc(=O)oc2c1)C(=O)NCCN	26
6.36	–	C[C@@H](Oc1ccc2c(-c3ccc(F)cc3Cl)cc(=O)oc2c1)C(=O)N1CCC[C@H]1CO	42
5.91	–	C[C@@H](Oc1ccc2c(-c3ccc(F)cc3Cl)cc(=O)oc2c1)C(=O)Nc1ncco1	81
6.82	–	COCCNC(=O)[C@@H](C)Oc1ccc2c(-c3ccc(F)cc3Cl)cc(=O)oc2c1	25
6.87	–	C[C@@H](Oc1ccc2c(-c3ccc(F)cc3Cl)cc(=O)oc2c1)C(=O)NCCO	23
6.52	–	C[C@@H](Oc1ccc2c(-c3ccc(F)cc3Cl)cc(=O)oc2c1)C(=O)N1CCSCC1	34
6.70	–	C[C@@H](Oc1ccc2c(-c3ccc(F)cc3Cl)cc(=O)oc2c1)C(=O)NCCN(C)C	31
6.39	–	C[C@@H](Oc1ccc2c(-c3ccc(F)cc3Cl)cc(=O)oc2c1)C(=O)NCc1ccco1	41
6.74	–	CC(=O)NCCNC(=O)[C@@H](C)Oc1ccc2c(-c3ccc(F)cc3Cl)cc(=O)oc2c1	26
6.09	–	C[C@@H](Oc1ccc2c(-c3ccc(F)cc3Cl)cc(=O)oc2c1)C(=O)NCCC1CCOCC1	73
6.05	–	C[C@@H](Oc1ccc2c(-c3ccc(F)cc3Cl)cc(=O)oc2c1)C(=O)Nc1ccccn1	77
7.03	–	C[C@@H](Oc1ccc2c(-c3ccc(F)cc3Cl)cc(=O)oc2c1)C(=O)N1CCOCC1	25
6.91	–	C[C@@H](Oc1ccc2c(-c3ccc(F)cc3Cl)cc(=O)oc2c1)C(=O)N1CCNCC1	25
5.91	–	C[C@@H](Oc1ccc2c(-c3ccc(F)cc3Cl)cc(=O)oc2c1)C(=O)NCCN1CCOCC1	82
